Here are results for 13 compounds from US9090549B2, “1,4-naphthoquinones derivatives and therapeutic use thereof” (CENTRE NATIONAL DE LA RECHERCHE SCIENTIFIQUE (C.N.R.S.), priority 2008, dated 2015).

Data set [1] concerns the target P. falciparum glutathione reductase (PfGR) (Plasmodium falciparum, UniProt Q94655). The data set can be described thus: 1,4-Naphthoquinone reductase activity of P. falciparum glutathione reductase. Type of data set: biochemical. The note with it: for increased catalytic efficiency (kcat/KM) with respect to menadione: relative to menadione; for substrate behaviour from catalytic efficiencies kcat/KM: with respect to menadione. The method, then: The reduction assay mixture consisted of 100 mM potassium phosphate buffer pH 6.9, 200 mM KCl, 1 mM EDTA and 100 μM NADPH in a total volume of 1 mL. 1,4-naphthoquinone reductase activity was determined by recording the initial velocities in the presence of increasing naphthoquinone concentrations (0-300 μM). […] For the determination of KM and Vmax values, the steady-state rates were fitted by using nonlinear regression analysis software (Kaleidagraph) to the Michaelis-Menten equation. From these values, the turnover number kcat and the catalytic efficiency kcat/KM were calculated.

Data set [2] has as its system P. falciparum multidrug-resistant strain Dd2. Put plainly: Dd2 growth inhibition, 3H-hypoxanthine assay. To be noted: Plasmodium falciparum, DD2, 48 h exposure then 24 h hypoxanthine; read-out: IC50 against Dd2. Type of data set: cell-based, Plasmodium falciparum. Here is the method: The IC50 was tested by standard in vitro antiproliferation assays (Desjardins et al, 1979 Antimicrob. Agents Chemother 1979, 16, 710-718). Infected erythrocytes in ring stage (0.5% parasitemia, 2.5% hematocrit) in 96-well plates were exposed to the compounds for 48 h and then to radioactive hypoxanthine for 24 h. The amount of radioactivity in precipitable material served as an index of cell proliferation.

In data set [3] the test system is Pf-GHA. Put plainly: Pf-GHA growth inhibition, colorimetric NBT-based lactate dehydrogenase assay. Type of data set: cell-based. To be noted: Plasmodium falciparum; 72 h incubation; read-out: IC50 against Pf-GHA. Here is the method: The IC50 values against Pf-GHA and MRC-5 were determined by using the less sensitive colorimetric NBT-based lactate dehydrogenase assay (Makler et al, Am. J. Trop. Med. Hyg. 1993, 48 (6), 739-741) based on redox-reactions.
In Vitro Antiparasitic Bioassays. The strain is maintained in RPMI-1640 medium supplemented with 0.37 mM hypoxanthine, 25 mM HEPES, 25 mM NaHCO3, and 10% O^+ human serum together with 2-4% washed human O^+ erythrocytes. All cultures and assays are conducted under an atmosphere of 4% CO2, 3% O2 and 93% N2. Assays are performed in 96-well microtiter plates, each well containing 10 μL of the watery compound dilutions together with 190 μL of the malaria parasite inoculum (1% parasitaemia, 2% HCT). After 72 h incubation, plates are frozen and stored at −20° C. After thawing, 20 μL of each well is transferred into another plate together with 100 μL Malstat reagent and 20 μL of 1/1 mixture of PES (phenazine ethosulfate, 0.1 mg/mL) and NBT (Nitro Blue Tetrazolium Grade III, 2 mg/mL). Change in colour is measured spectrophotometrically at 655 nm. The results are expressed as % reduction in parasitaemia compared to control wells. Compounds are treated at 5 concentrations (64-16-4-1 and 0.25 μM or μg/mL).

The test system of data set [4] is P. berghei ANKA. The data set can be described thus: In vivo 4-day suppressive test in P. berghei-infected mice. On the set-up: species or system Plasmodium berghei. The note with it: for activity on 4-day treatment / reduction in parasitaemia: intraperitoneal; for activity on 4-day treatment: P. berghei-infected mice; for reduction in parasitaemia: daily dose of 30 mg/kg. Here is the method: The in vivo tests in the mouse model were done according to a standard protocol (Peters et al Handbook of Animal Models of Infection; Academic Press, London, 1999; pp. 756-771). […] […] For administration, compounds were freshly prepared in 10% DMSO in sterile phosphate-buffered saline the day of use. Two hours post-infection mice received the first treatment by the intraperitoneal route. Mice were further treated on days +1-3. Blood films from tail blood were prepared on day +4, and parasitaemia was determined by microscopic examination of Giemsa-stained blood films. […] […] Mice were treated and levels of parasitemia determined as described.

The target of data set [5] is methemoglobin(Fe3+) (Homo sapiens, UniProt P68871+P69905). Put plainly: Redox-cycling of methemoglobin(Fe3+) into oxyhemoglobin(Fe2+) with NADPH/GR system. Format: biochemical. An excerpt:
Since FPIX(Fe^2+) is an inhibitor of hematin polymerization, compounds displaying the ability to reduce FPIX(Fe^3+) into FPIX(Fe^2+) might synergistically contribute with GR inhibition to increased oxidative stress in infected-red blood cells. To evaluate the redox-cycling activity of FPIX(Fe^3+) into FPIX(Fe^2+) we set up an assay using the naphthoquinone, the glutathione reductase/NADPH-based system to regenerate the dihydronaphthoquinone continuously and methemoglobin(Fe^3+) (MetHb). The UV-spectrum of MetHb between 300 nm and 700 nm is characterized by a maximal absorbance at 405 nm and a broad band centered at around 630 nm. […] We used 20 μM methylene blue as positive control of this redox-cycling activity.
In an Eppendorf tube containing 6.4 mg MetHb dissolved in 885 μL GR buffer (47 mM potassium phosphate buffer pH 6.9, 200 mM KCl, 100 mM EDTA), 10 μL 20 mM P_TM25 dissolved in DMSO and 100 μL NADPH dissolved in GR buffer were added. The reaction was started by the addition of 5 μL human GR and then incubated at 37° C. In a 1 mL cuvette 20 μL of the reaction mixture was diluted with 980 μL GR buffer and a UV-spectra between 300 nm and 700 nm was done after 5 min, 10 min, 20 min and 30 min incubation time. The final concentrations in the reaction mixture were 100 μM MetHb, 200 μM P_TM25, 400 μM NADPH and […] hGR, final DMSO concentration 1%.
Spectra were measured after 5 min (blue), 10 min (black), 20 min (green) and 30 min (red).

In data set [6] the target is T1, human glutathione reductase (hGR) (Homo sapiens, UniProt P00390).
T1 sequence (P00390 44-522): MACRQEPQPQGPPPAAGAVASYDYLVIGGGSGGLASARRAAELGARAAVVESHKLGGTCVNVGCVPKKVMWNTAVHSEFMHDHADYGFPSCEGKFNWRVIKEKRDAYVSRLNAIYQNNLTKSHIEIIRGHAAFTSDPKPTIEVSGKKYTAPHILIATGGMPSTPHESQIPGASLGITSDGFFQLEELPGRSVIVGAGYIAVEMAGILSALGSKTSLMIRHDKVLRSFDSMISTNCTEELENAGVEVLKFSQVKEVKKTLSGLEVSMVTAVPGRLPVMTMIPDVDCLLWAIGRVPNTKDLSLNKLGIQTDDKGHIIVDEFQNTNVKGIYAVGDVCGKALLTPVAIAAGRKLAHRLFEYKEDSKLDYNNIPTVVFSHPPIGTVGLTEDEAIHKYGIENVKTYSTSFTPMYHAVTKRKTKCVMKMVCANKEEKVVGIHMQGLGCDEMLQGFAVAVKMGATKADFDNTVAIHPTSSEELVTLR
The data set can be described thus: Inhibition of human glutathione reductase under steady-state conditions. Format: biochemical. The note with it: pH 6.9, 25° C., 1 mM GSSG, 100 μM NADPH.

Where only a bound is given, the exact number is not on record here.

Sequence of P. falciparum glutathione reductase (PfGR) (Q94655 2-500 limits assumed): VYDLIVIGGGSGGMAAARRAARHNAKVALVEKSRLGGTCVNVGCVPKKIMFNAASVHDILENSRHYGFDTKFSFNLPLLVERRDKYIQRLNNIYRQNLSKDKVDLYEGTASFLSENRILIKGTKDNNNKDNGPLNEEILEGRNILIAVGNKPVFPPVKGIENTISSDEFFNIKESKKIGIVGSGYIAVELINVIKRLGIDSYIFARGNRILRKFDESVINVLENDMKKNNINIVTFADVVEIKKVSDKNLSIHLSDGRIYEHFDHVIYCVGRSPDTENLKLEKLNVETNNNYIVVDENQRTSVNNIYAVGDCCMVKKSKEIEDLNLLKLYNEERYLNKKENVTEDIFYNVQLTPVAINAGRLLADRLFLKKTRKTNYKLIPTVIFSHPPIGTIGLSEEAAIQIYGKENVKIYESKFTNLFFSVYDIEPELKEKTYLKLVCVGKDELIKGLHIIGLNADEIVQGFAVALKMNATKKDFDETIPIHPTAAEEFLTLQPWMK
Sequence of methemoglobin(Fe3+) (P69905 2-142 limits assumed): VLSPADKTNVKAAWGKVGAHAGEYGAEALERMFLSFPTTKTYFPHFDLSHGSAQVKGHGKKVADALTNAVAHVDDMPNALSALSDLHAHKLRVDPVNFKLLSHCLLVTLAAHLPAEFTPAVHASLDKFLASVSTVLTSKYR
Sequence of methemoglobin(Fe3+) (P68871 2-147 limits assumed): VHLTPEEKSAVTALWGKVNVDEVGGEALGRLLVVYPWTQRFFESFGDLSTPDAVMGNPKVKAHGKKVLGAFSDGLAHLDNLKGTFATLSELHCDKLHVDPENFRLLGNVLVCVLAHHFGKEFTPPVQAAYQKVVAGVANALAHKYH

A word on the melting point: it is the temperature, or range, at which the solid turns liquid. Broadly, the IC50 is the concentration at which inhibition is half-maximal. `CC1=C(C(=O)c2ccc([N+](=O)[O-])cc2)C(=O)C2C=CC=CC2C1=O` (centres unmarked) [P_TM40, 2-Methyl-3-(4-nitro-benzoyl)-4a,8a-dihydro-[1,4]naphthoquinone]: the melting point lay in the range of 170 to 171 °C. In data set [1], the “increased catalytic efficiency (kcat/KM) with respect to menadione” value (“increased catalytic efficiency (kcat/KM)” for short) is reported as 3.9 fold and the “substrate behaviour from catalytic efficiencies kcat/KM” value (“substrate behaviour” for short) is “very effective substrates”. Further, the IC50 in data set [2] worked out at 103 nM.
The compound `CC1=C(Cc2ccc(O)cc2)C(=O)C2C=CC=CC2C1=O` (centres unmarked) [P_TM36, 2-Methyl-3-(4-hydroxy-benzyl)-4a,8a-dihydro-[1,4]naphthoquinone] yielded a melting point of 165 to 166 °C. For the same compound, in data set [3], the IC50 is less than 5000 nM. For the same compound, the IC50 in data set [2] was less than 100 nM. In addition, in data set [4], the “activity on 4-day treatment” value is on record as “significant activity”.
`CC1=C(CC2=CC(=O)C=CC2=O)C(=O)C2C=CC=CC2C1=O` (centres unmarked) [P_TM63, 2-(3,6-Dioxo-cyclohexa-1,4-dienylmethyl)-3-methyl-4a,8a-dihydro-[1,4]naphthoquinone]: in data set [1], the “increased catalytic efficiency (kcat/KM)” value is 17.2 fold and the “substrate behaviour” value is listed as “very effective substrates”.
A word on the Km: it is the concentration of substrate that gives half-maximal velocity. As to “2-Methyl-3-(fluoro-benzoyl)-4a,8a-dihydro-[1,4]naphthoquinone [P_TM27]”, the Km in data set [1] (pH 6.9, 100 μM NADPH, 1% DMSO) turned out to be 56.1 µM. Also, the “substrate behaviour” value in data set [1] is on record as “very effective substrates”.
In the case of `CC1=C(C(=O)c2ccc(Br)cc2)C(=O)C2C(O)=CC=CC2C1=O` (centres unmarked) [P_TM47, 3-(4-bromo-benzoyl)-5-hydroxy-2-methyl 4a,8a-dihydro-[1,4]naphthoquinone], the melting point lay within 161 to 162 °C. Further, in data set [1], the “increased catalytic efficiency (kcat/KM)” value came out at 6.3 fold and the “substrate behaviour” value is given as “very effective substrates”.
In the case of `CN(C)c1ccc2nc3ccc(=[N+](C)C)cc-3sc2c1` [Methylene Blue, reference compound], the “shift of λmax of MetHb” value in data set [5] (20 μM Methylene Blue, same conditions) is recorded as “clear shift”.
Turning to `CC1=C(Cc2ccc(C(C)(C)C)cc2)C(=O)C2C=CC=CC2C1=O` (centres unmarked) [P_TM43, 2-Methyl-3-(4-tert-butyl-benzyl)-4a,8a-dihydro-[1,4]naphthoquinone], the melting point lay in the range of 60 to 61 °C. In data set [2], the IC50 is less than 100 nM. In addition, the reduction in parasitaemia in data set [4] (4-day test, mice) is listed as 43.4%. The “activity on 4-day treatment” value in data set [4] is on record as “significant activity”.
`CC1=C(Cc2ccc([N+](=O)[O-])cc2)C(=O)C2C=CC=CC2C1=O` (centres unmarked) [P_TM37, 2-Methyl-3-(4-nitro-benzyl)-4a,8a-dihydro-[1,4]naphthoquinone]: the melting point lay in the range of 156 to 157 °C. The reduction in parasitaemia in data set [4] (4-day test, mice) is reported as 42.4%. Also, the “activity on 4-day treatment” value in data set [4] is “significant activity”.
Compound `COc1ccc(C(=O)C2=C(C)C(=O)C3C=CC=CC3C2=O)cc1` (centres unmarked) [P_TM34, 2-Methyl-3-(4-methoxy-benzoyl)-4a,8a-dihydro-[1,4]naphthoquinone] yielded a melting point of 150 to 151 °C. Moreover, the “substrate behaviour” value in data set [1] is reported as “very effective substrates”.
`CC1=C(C(=O)c2ccc(O)cc2)C(=O)C2C=CC=CC2C1=O` (centres unmarked) [P_TM39, 2-Methyl-3-(4-hydroxy-benzoyl)-4a,8a-dihydro-[1,4]naphthoquinone] yielded a melting point of 184 to 185 °C. In data set [1], the “substrate behaviour” value is “very effective substrates”. In addition, in data set [3], the IC50 is less than 5000 nM.
For `CC1=C(Cc2ccc(C(F)(F)F)cc2)C(=O)c2ccccc2C1=O` [P_TM29], half-maximal inhibition in data set [6] (IC50) was put at 1600 nM.
As for `CC1=C(Cc2ccc(Br)cc2)C(=O)C2C=CC=CC2C1=O` (centres unmarked) [P_TM24, 2-Methyl-3-(4-bromo-benzyl)-4a,8a-dihydro-[1,4]naphthoquinone], the melting point fell in the range of 121 to 122 °C. In addition, the IC50 in data set [3] was less than 5000 nM. In addition, the IC50 in data set [2] is less than 100 nM. In data set [4] (daily dose of 50 mg/kg ip, 4-day test, mice), this compound returned a decrease in parasitaemia of 35.6%. Further, the “activity on 4-day treatment” value in data set [4] is recorded as “significant activity”.
As for `CC1=C(C(=O)c2ccc(Br)cc2)C(=O)C2C=CC=CC2C1=O` (centres unmarked) [P_TM25, 2-Methyl-3-(4-bromo-benzoyl)-4a,8a-dihydro-[1,4]naphthoquinone], the melting point was 170 to 171 °C. Also, the “substrate behaviour” value in data set [1] is on record as “very effective substrates”. Moreover, in data set [5] (100 μM MetHb, NADPH, human GR), the “concentration at which the shift of maximal absorbance of MetHb from 405 to 410 nm starts being visible” value is 50 µM. Moreover, in data set [5] (200 μM P_TM25, 100 μM MetHb, 400 μM NADPH, human GR, 37° C.), the “redox-cycling of methemoglobin in the presence of GR” value is on record as “can undergo redox-cycling of methemoglobin”.
